Target: wild-type un-phosphorylated FGFR3 protein (Homo sapiens, UniProt P22607)
Assay: FGFR Enzymatic Assay (FRET peptide phosphorylation)
Protocol: The inhibitor potency of the exemplified compounds was determined in an enzyme discontinuous assay that measures peptide phosphorylation using FRET measurements to detect product formation. Inhibitors were serially diluted in DMSO and a volume of 0.2 μL was transferred to the wells of a 384-well plate. A 5 μL/well volume of enzyme isoforms of FGFR (-1, -2, -3 wild-type and mutant isoforms, -4) including phosphorylated and un-phosphorylated proteins diluted in assay buffer (50 mM HEPES, 10 mM MgCl2, 1 mM EGTA, 0.01% Tween-20, 5 mM DTT, pH 7.5) was added to the plate and pre-incubated with inhibitor for 5 to 15 minutes at ambient temperature. Appropriate controls (enzyme blank and enzyme with no inhibitor) were included on the plate. The reaction was initiated by the addition of a 5 μL/well volume containing both biotinylated [sequence] peptide substrate (SEQ ID NO: 1) and ATP in assay buffer. The 10 μL/well reaction concentration of the peptide substrate was 500 nM whereas the ATP concentration was maintained near or below the ATP Km. The ATP Km values were pre-determined in a separate series of experiments. The reaction plate was incubated at 25° C. for 1 hr and the reactions were ended with the addition of 5 μL/well of quench solution (50 mM Tris, 150 mM NaCl, 0.5 mg/mL BSA, pH 7.8; 45 mM EDTA, 600 nM staurosporin, with Perkin Elmer Lance Reagents at 3.75 nM Eu-antibody PY20 and 180 nM APC-Streptavidin). The plate was allowed to equilibrate for ˜10 minutes at ambient temperature before scanning on a PheraStar plate reader (BMG Labtech) instrument.
Either GraphPad prism or XLfit was used to analyze the data. The IC50 values were derived by fitting the data to a four parameter logistic equation producing a sigmoidal dose-response curve with a variable Hill coefficient. Prism equation: Y=Bottom+(Top−Bottom)/(1+10^((Log IC50−X)*Hill slope)); XLfit equation: Y=(A+((B−A)/(1+((X/C)^D)))) where X is the logarithm of inhibitor concentration and Y is the response.

Chain of wild-type un-phosphorylated FGFR3 protein (P22607 23-806): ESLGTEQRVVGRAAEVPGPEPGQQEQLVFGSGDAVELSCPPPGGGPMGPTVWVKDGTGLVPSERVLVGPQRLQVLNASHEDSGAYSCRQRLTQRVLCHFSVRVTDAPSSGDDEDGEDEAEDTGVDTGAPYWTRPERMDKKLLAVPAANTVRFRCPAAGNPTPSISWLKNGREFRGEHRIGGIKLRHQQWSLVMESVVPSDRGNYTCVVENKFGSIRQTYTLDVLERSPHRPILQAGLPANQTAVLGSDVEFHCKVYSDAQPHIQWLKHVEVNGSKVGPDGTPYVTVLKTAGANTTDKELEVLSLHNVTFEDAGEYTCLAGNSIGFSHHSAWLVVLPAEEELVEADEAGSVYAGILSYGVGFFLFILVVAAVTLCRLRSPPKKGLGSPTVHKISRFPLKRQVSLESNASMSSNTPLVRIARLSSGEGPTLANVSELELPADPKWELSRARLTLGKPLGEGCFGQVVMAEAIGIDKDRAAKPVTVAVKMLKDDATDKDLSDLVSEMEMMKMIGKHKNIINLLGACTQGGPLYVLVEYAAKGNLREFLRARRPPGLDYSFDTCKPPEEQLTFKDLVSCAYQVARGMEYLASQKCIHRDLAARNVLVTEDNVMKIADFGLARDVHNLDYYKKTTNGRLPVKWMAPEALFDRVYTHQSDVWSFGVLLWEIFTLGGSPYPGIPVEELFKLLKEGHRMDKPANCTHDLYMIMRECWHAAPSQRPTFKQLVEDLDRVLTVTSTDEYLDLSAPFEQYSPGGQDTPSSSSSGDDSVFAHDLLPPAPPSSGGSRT

An IC50 of under 0.1 nM was found for `NC(=O)c1c(-c2c(Cl)cccc2Cl)nc2c3cc(-c4cnn(CCO)c4)cnc3ccn12` [Example 1, 2-(2,6-Dichlorophenyl)-9-(1-(2-hydroxyethyl)-1H-pyrazol-4-yl)imidazo[2,1-f][1,6]naphthyridine-3-carboxamide] in this work.

An IC50 of under 0.1 nM was found for `CC(C)(O)Cn1cc(-c2cnc3ccn4c(C(N)=O)c(-c5c(Cl)cccc5Cl)nc4c3c2)cn1` [Example 2, 2-(2,6-Dichlorophenyl)-9-(1-(2-hydroxy-2-methylpropyl)-1H-pyrazol-4-yl)imidazo[2,1-f][1,6]naphthyridine-3-carboxamide] in this work.

An IC50 of 0.1 to 1 nM was found for `CC(C)(C(N)=O)n1cc(-c2cnc3ccn4c(C(N)=O)c(-c5c(Cl)cccc5Cl)nc4c3c2)cn1` [Example 3, 9-(1-(1-Amino-2-methyl-1-oxopropan-2-yl)-1H-pyrazol-4-yl)-2-(2,6-dichlorophenyl)imidazo[2,1-f][1,6]naphthyridine-3-carboxamide] in this work.

An IC50 of under 0.1 nM was found for `NC(=O)c1c(-c2c(Cl)cccc2Cl)nc2c3cc(-c4ccc(C(=O)N5CCOCC5)cc4)cnc3ccn12` [Example 4, 2-(2,6-Dichlorophenyl)-9-(4-(morpholine-4-carbonyl)phenyl)imidazo[2,1-f][1,6]naphthyridine-3-carboxamide] in this work.

An IC50 of under 0.1 nM was found for `NC(=O)c1c(-c2c(Cl)cccc2Cl)nc2c3cc(-c4cn[nH]c4)cnc3ccn12` [Example 5, 2-(2,6-Dichlorophenyl)-9-(1H-pyrazol-4-yl)imidazo[2,1-f][1,6]naphthyridine-3-carboxamide] in this work.

An IC50 of under 0.1 nM was found for `CC(CC#N)n1cc(-c2cnc3ccn4c(C(N)=O)c(-c5c(Cl)cccc5Cl)nc4c3c2)cn1` (centres unmarked) [Example 6, 9-(1-(1-Cyanopropan-2-yl)-1H-pyrazol-4-yl)-2-(2,6-dichlorophenyl)imidazo[2,1-f][1,6]naphthyridine-3-carboxamide] in this work.

An IC50 of 0.1 to 1 nM was found for `CCC(O)Cn1cc(-c2cnc3ccn4c(C(N)=O)c(-c5c(Cl)cccc5Cl)nc4c3c2)cn1` (centres unmarked) [Example 7, 2-(2,6-Dichlorophenyl)-9-(1-(2-hydroxybutyl)-1H-pyrazol-4-yl)imidazo[2,1-f][1,6]naphthyridine-3-carboxamide] in this work.

An IC50 of under 0.1 nM was found for `NC(=O)c1c(-c2c(Cl)cccc2Cl)nc2c3cc(-c4cnn(CC5(F)CCOCC5)c4)cnc3ccn12` [Example 8, 2-(2,6-Dichlorophenyl)-9-(1-((4-fluorotetrahydro-2H-pyran-4-yl)methyl)-1H-pyrazol-4-yl)imidazo[2,1-f][1,6]naphthyridine-3-carboxamide] in this work.

An IC50 of under 0.1 nM was found for `N#Cc1cncc(Cn2cc(-c3cnc4ccn5c(C(N)=O)c(-c6c(Cl)cccc6Cl)nc5c4c3)cn2)c1` [Example 9, 9-(1-((5-Cyanopyridin-3-yl)methyl)-1H-pyrazol-4-yl)-2-(2,6-dichlorophenyl)imidazo[2,1-f][1,6]naphthyridine-3-carboxamide] in this work.

An IC50 of under 0.1 nM was found for `N#Cc1cc(Cn2cc(-c3cnc4ccn5c(C(N)=O)c(-c6c(Cl)cccc6Cl)nc5c4c3)cn2)ccn1` [Example 10, 9-(1-((2-Cyanopyridin-4-yl)methyl)-1H-pyrazol-4-yl)-2-(2,6-dichlorophenyl)imidazo[2,1-f][1,6]naphthyridine-3-carboxamide] in this work.

An IC50 of under 0.1 nM was found for `NC(=O)c1c(-c2c(Cl)cccc2Cl)nc2c3cc(-c4cnn(Cc5ccncn5)c4)cnc3ccn12` [Example 11, 2-(2,6-Dichlorophenyl)-9-(1-(pyrimidin-4-ylmethyl)-1H-pyrazol-4-yl)imidazo[2,1-f][1,6]naphthyridine-3-carboxamide] in this work.

An IC50 of 0.1 to 1 nM was found for `CC(c1ccnc(C#N)c1)n1cc(-c2cnc3ccn4c(C(N)=O)c(-c5c(Cl)cccc5Cl)nc4c3c2)cn1` (centres unmarked) [Example 12, 9-(1-(1-(2-Cyanopyridin-4-yl)ethyl)-1H-pyrazol-4-yl)-2-(2,6-dichlorophenyl)imidazo[2,1-f][1,6]naphthyridine-3-carboxamide] in this work.

An IC50 of 0.1 to 1 nM was found for `NC(=O)c1c(-c2c(Cl)cccc2Cl)nc2c3cc(-c4ccc(C5CCS(=O)(=O)CC5)cc4)cnc3ccn12` [Example 13, 2-(2,6-Dichlorophenyl)-9-(4-(1,1-dioxidotetrahydro-2H-thiopyran-4-yl)phenyl)imidazo[2,1-f][1,6]naphthyridine-3-carboxamide] in this work.

An IC50 of under 0.1 nM was found for `NC(=O)c1c(-c2c(Cl)cccc2Cl)nc2c3cc(-c4ccc(N5CCS(=O)(=O)CC5)cc4)cnc3ccn12` [Example 14, 2-(2,6-Dichlorophenyl)-9-(4-(1,1-dioxidothiomorpholino)phenyl)imidazo[2,1-f][1,6]naphthyridine-3-carboxamide] in this work.

An IC50 of under 0.1 nM was found for `NC(=O)c1c(-c2c(Cl)cccc2Cl)nc2c3cc(-c4cnn(Cc5ncccn5)c4)cnc3ccn12` [Example 15, 2-(2,6-Dichlorophenyl)-9-(1-(pyrimidin-2-ylmethyl)-1H-pyrazol-4-yl)imidazo[2,1-f][1,6]naphthyridine-3-carboxamide] in this work.

An IC50 of under 0.1 nM was found for `N#Cc1cccc(Cn2cc(-c3cnc4ccn5c(C(N)=O)c(-c6c(Cl)cccc6Cl)nc5c4c3)cn2)n1` [Example 16, 9-(1-((6-Cyanopyridin-2-yl)methyl)-1H-pyrazol-4-yl)-2-(2,6-dichlorophenyl)imidazo[2,1-f][1,6]naphthyridine-3-carboxamide] in this work.

An IC50 of under 0.1 nM was found for `CC(=O)N1CCN(c2ccc(-c3cnc4ccn5c(C(N)=O)c(-c6c(Cl)cccc6Cl)nc5c4c3)cc2)CC1` [Example 17, 9-(4-(4-Acetylpiperazin-1-yl)phenyl)-2-(2,6-dichlorophenyl)imidazo[2,1-f][1,6]naphthyridine-3-carboxamide] in this work.

An IC50 of under 0.1 nM was found for `NC(=O)c1c(-c2c(Cl)cccc2Cl)nc2c3cc(-c4ccc(N5CCN(C(=O)CO)CC5)cc4)cnc3ccn12` [Example 18, 2-(2,6-Dichlorophenyl)-9-(4-(4-(2-hydroxyacetyl)piperazin-1-yl)phenyl)imidazo[2,1-f][1,6]naphthyridine-3-carboxamide] in this work.

An IC50 of under 0.1 nM was found for `CC(=O)N1CCN(Cc2ccc(-c3cnc4ccn5c(C(N)=O)c(-c6c(Cl)cccc6Cl)nc5c4c3)cc2)CC1` [Example 19, 9-(4-((4-Acetylpiperazin-1-yl)methyl)phenyl)-2-(2,6-dichlorophenyl)imidazo[2,1-f][1,6]naphthyridine-3-carboxamide] in this work.

An IC50 of 0.1 to 1 nM was found for `NC(=O)c1c(-c2c(Cl)cccc2Cl)nc2c3cc(-c4ccc(CN5CCN(C(=O)CO)CC5)cc4)cnc3ccn12` [Example 20, 2-(2,6-Dichlorophenyl)-9-(4-((4-(2-hydroxyacetyl)piperazin-1-yl)methyl)phenyl)imidazo[2,1-f][1,6]naphthyridine-3-carboxamide] in this work.

An IC50 of under 0.1 nM was found for `CN1CCN(c2ccc(-c3cnc4ccn5c(C(N)=O)c(-c6c(Cl)cccc6Cl)nc5c4c3)cc2)CC1` [Example 21, 2-(2,6-Dichlorophenyl)-9-(4-(4-methylpiperazin-1-yl)phenyl)imidazo[2,1-f][1,6]naphthyridine-3-carboxamide] in this work.

An IC50 of under 0.1 nM was found for `NC(=O)c1c(-c2c(Cl)cccc2Cl)nc2c3cc(-c4ccc(C(=O)N5C[C@@H]6C[C@H]5CO6)cc4)cnc3ccn12` [Example 22, 9-(4-((1S,4S)-2-Oxa-5-azabicyclo[2.2.1]heptane-5-carbonyl)phenyl)-2-(2,6-dichlorophenyl)imidazo[2,1-f][1,6]naphthyridine-3-carboxamide] in this work.

An IC50 of under 0.1 nM was found for `N#CCn1cc(-c2cnc3ccn4c(C(N)=O)c(-c5c(Cl)cccc5Cl)nc4c3c2)cn1` [Example 23, 9-(1-(Cyanomethyl)-1H-pyrazol-4-yl)-2-(2,6-dichlorophenyl)imidazo[2,1-f][1,6]naphthyridine-3-carboxamide] in this work.

An IC50 of 0.1 to 1 nM was found for `NC(=O)c1c(-c2c(Cl)cccc2Cl)nc2c3cc(-c4cnn(C5CCOCC5)c4)cnc3ccn12` [Example 24, 2-(2,6-Dichlorophenyl)-9-(1-(tetrahydro-2H-pyran-4-yl)-1H-pyrazol-4-yl)imidazo[2,1-f][1,6]naphthyridine-3-carboxamide] in this work.

An IC50 of 0.1 to 1 nM was found for `NC(=O)c1c(-c2c(Cl)cccc2Cl)nc2c3cc(-c4cnn(Cc5ccccc5)c4)cnc3ccn12` [Example 25, 9-(1-Benzyl-1H-pyrazol-4-yl)-2-(2,6-dichlorophenyl)imidazo[2,1-f][1,6]naphthyridine-3-carboxamide] in this work.

An IC50 of under 0.1 nM was found for `CS(=O)(=O)CCn1cc(-c2cnc3ccn4c(C(N)=O)c(-c5c(Cl)cccc5Cl)nc4c3c2)cn1` [Example 26, 2-(2,6-Dichlorophenyl)-9-(1-(2-(methylsulfonyl)ethyl)-1H-pyrazol-4-yl)imidazo[2,1-f][1,6]naphthyridine-3-carboxamide] in this work.

An IC50 of under 0.1 nM was found for `CC(C#N)n1cc(-c2cnc3ccn4c(C(N)=O)c(-c5c(Cl)cccc5Cl)nc4c3c2)cn1` (centres unmarked) [Example 27, 9-(1-(1-Cyanoethyl)-1H-pyrazol-4-yl)-2-(2,6-dichlorophenyl)imidazo[2,1-f][1,6]naphthyridine-3-carboxamide] in this work.

An IC50 of under 0.1 nM was found for `NC(=O)c1c(-c2c(Cl)cccc2Cl)nc2c3cc(-c4cnn(CC(F)F)c4)cnc3ccn12` [Example 28, 2-(2,6-Dichlorophenyl)-9-(1-(2,2-difluoroethyl)-1H-pyrazol-4-yl)imidazo[2,1-f][1,6]naphthyridine-3-carboxamide] in this work.

An IC50 of under 0.1 nM was found for `CN1CCC(n2cc(-c3cnc4ccn5c(C(N)=O)c(-c6c(Cl)cccc6Cl)nc5c4c3)cn2)CC1` [Example 29, 2-(2,6-Dichlorophenyl)-9-(1-(1-methylpiperidin-4-yl)-1H-pyrazol-4-yl)imidazo[2,1-f][1,6]naphthyridine-3-carboxamide] in this work.

An IC50 of under 0.1 nM was found for `CC(C)(CO)n1cc(-c2cnc3ccn4c(C(N)=O)c(-c5c(Cl)cccc5Cl)nc4c3c2)cn1` [Example 30, 2-(2,6-Dichlorophenyl)-9-(1-(1-hydroxy-2-methylpropan-2-yl)-1H-pyrazol-4-yl)imidazo[2,1-f][1,6]naphthyridine-3-carboxamide] in this work.

An IC50 of under 0.1 nM was found for `CC(C)(C#N)n1cc(-c2cnc3ccn4c(C(N)=O)c(-c5c(Cl)cccc5Cl)nc4c3c2)cn1` [Example 31, 9-(1-(2-Cyanopropan-2-yl)-1H-pyrazol-4-yl)-2-(2,6-dichlorophenyl)imidazo[2,1-f][1,6]naphthyridine-3-carboxamide] in this work.

An IC50 of under 0.1 nM was found for `NC(=O)c1c(-c2c(Cl)cccc2Cl)nc2c3cc(-c4cnn(C5CC5)c4)cnc3ccn12` [Example 32, 9-(1-Cyclopropyl-1H-pyrazol-4-yl)-2-(2,6-dichlorophenyl)imidazo[2,1-f][1,6]naphthyridine-3-carboxamide] in this work.
